{"source": "patent US12195427B2", "about": "“MASP-2 inhibitors and methods of use” (priority 2018, dated 2025)", "molecular_target": "MASP-2 CCP2-SP (Homo sapiens (Human), UniProt O00187)", "sequence (O00187 445-686)": "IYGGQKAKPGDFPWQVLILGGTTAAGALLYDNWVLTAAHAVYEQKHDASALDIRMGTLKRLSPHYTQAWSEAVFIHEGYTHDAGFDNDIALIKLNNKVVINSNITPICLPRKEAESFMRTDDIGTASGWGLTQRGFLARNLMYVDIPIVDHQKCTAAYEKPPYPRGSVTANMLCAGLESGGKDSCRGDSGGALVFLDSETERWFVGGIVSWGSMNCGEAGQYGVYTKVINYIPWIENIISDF", "sequence (O00187 364-432 partner)": "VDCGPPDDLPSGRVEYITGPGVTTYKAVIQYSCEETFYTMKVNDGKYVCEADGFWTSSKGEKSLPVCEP", "experiment": "MASP-2 co-crystallization, X-ray crystallography and structure analysis (H-bonds, van der Waals contacts);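 for Ligand-pharmacophore element distance, pharmacophore element C2: distance from averaged pharmacophore element to bound ligand; missing value means element absent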;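 for Ligand-pharmacophore element distance, pharmacophore element C3: distance from averaged pharmacophore element to bound ligand; missing value means element absent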;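 for Ligand-pharmacophore element distance, pharmacophore element C4: distance from averaged pharmacophore element to bound ligand; missing value means element absent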;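 for Ligand-pharmacophore element distance, pharmacophore element C5: distance from averaged pharmacophore element to bound ligand; missing value means element absent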", "design": "van der Waals contact distance, MASP-2 HIS 483 atom CD2 / van der Waals contact distance, MASP-2 HIS 483 atom NE2 / van der Waals contact distance, SER 654 C to compound atom / van der Waals contact distance, SER 654 O to compound atom / van der Waals contact distance, TRP 655 C to compound atom / van der Waals contact distance, MASP-2 GLY 528 atom CA / van der Waals contact distance TRP 655 atom CZ3 / van der Waals contact distance TRP 655 atom N / van der Waals contact distance TRP 655 atom CE3 / van der Waals contact distance GLY 656 atom C / van der Waals contact distance GLY 656 atom CA / van der Waals contact distance GLY 656 atom O / van der Waals contact distance, MASP-2 TYR 607 atom CD1 / van der Waals contact distance, MASP-2 PRO 606 atom O / d(C3,CA1) / d(CA1,N1)2 / d(H4,O1) / d(H4,O2) / d(O1,O2) / d(CA1,O2) / d(CA6,O1) / d(CA6,O2) / d(CA1,C5) / d(O2,H3) / d(N2,C2) / d(CA5,N2) / d(N2,C4) / d(N2,C6) / d(N2,CA3) / d(N2,O3) / d(O4,H2): unit not given beside the values", "conditions": "for Ligand-pharmacophore element distance, pharmacophore element C2 / Ligand-pharmacophore element distance, pharmacophore element C3 / Ligand-pharmacophore element distance, pharmacophore element C4 / Ligand-pharmacophore element distance, pharmacophore element C5 / Ligand-pharmacophore element distance, pharmacophore element C6 / Ligand-pharmacophore element distance, pharmacophore element C7 / Ligand-pharmacophore element distance, pharmacophore element CA1 / Ligand-pharmacophore element distance, pharmacophore element CA2 / Ligand-pharmacophore element distance, pharmacophore element CA3 / Ligand-pharmacophore element distance, pharmacophore element CA4 / Ligand-pharmacophore element distance, pharmacophore element CA5 / Ligand-pharmacophore element distance, pharmacophore element CA6: Table A4-1; for a(N1, CA1, O1) b): Methyl-amino-pyridine compounds; for Pharmacophore torsion angle a(O1, O2, N2, CA2): Table A7-2", "source_text": "This example illustrates the preparation of recombinant MASP-2 protein, based on UniProt O00187, human mannan-binding lectin serine protease 2. Expression constructs for human MASP-2 CCP2-SP and CCP2-SP-6HIS were generated for recombinant expression in E. coli cells.\nTypically, crystallization hits were obtained by screening against […] 96-well crystallization reagent kits (GRAS6, GRAS2, Hampton Research; MORPHEUS, Molecular Dimensions; Wizard 1&2 Cryo, Rigaku Reagents) and crystal growth was inspected by optical microscopy. Crystals were used directly or further optimized for X-ray diffraction. Crystals were captured with cryogenic loops and dipped into liquid nitrogen directly or cryoprotected with a 20% glycerol in crystallization formulation before flash-cooling in liquid nitrogen.\nThereafter crystals are transferred once or twice for soaking within the crystallization solution containing the MASP-2 inhibitor.\nCrystals were diffracted with synchrotron X-rays of […] and X-ray diffraction datasets were collected at beamlines SSRL BL9-2, BL14-1, BL12-2 as well as ALS sector 5 using Dectris Pilatus and Eiger detectors. Structures were determined by molecular replacement using portions of the structure 1Q3X as search models and partially refined with Buster 2.10.2 or Refmac 5.8. […] When multiple ligand poses were observed, for instance arising from multiple molecules in the asymmetric unit or refined dual poses within the same molecule, only one pose was selected and analyzed.\nLigPlot+ calls these ‘nonbonded contacts’ or ‘hydrophobic contacts’. Despite the name, there are atom pairings that include possible H-bonds. Thus, in some instances, the Table A2 also contains H-bond interactions.", "key": {"[1]": {"conditions": "Table A5-1 pharmacophore: distance between elements, S2/S1 region"}, "[2]": {"conditions": "Table A5-2 pharmacophore distance, S3/S4 region"}, "[3]": {"conditions": "Table A7-1, between pharmacophore elements of the bound compound"}, "[4]": {"conditions": "between pharmacophore elements of the bound compound"}, "[5]": {"conditions": "Table A8-6, nearest protein atom in cell to the left"}}}
{"smiles": "C[C@H](NC(=O)[C@H](N)CCc1ccccc1)C(=O)NCc1ccc(N)nc1.Cl.Cl", "note": "[1007_1]", "values": [{"measurement": "Ligand-pharmacophore element distance, pharmacophore element C2", "result": 0}, {"measurement": "Ligand-pharmacophore element distance, pharmacophore element C3", "result": 0}, {"measurement": "Ligand-pharmacophore element distance, pharmacophore element C4", "result": 0}, {"measurement": "Ligand-pharmacophore element distance, pharmacophore element C5", "result": 0}, {"measurement": "Ligand-pharmacophore element distance, pharmacophore element C6", "result": 0}, {"measurement": "Ligand-pharmacophore element distance, pharmacophore element C7", "result": 0}, {"measurement": "Ligand-pharmacophore element distance, pharmacophore element CA1", "result": 0.35}, {"measurement": "Ligand-pharmacophore element distance, pharmacophore element CA2", "result": 0.77}, {"measurement": "Ligand-pharmacophore element distance, pharmacophore element CA3", "result": 0}, {"measurement": "Ligand-pharmacophore element distance, pharmacophore element CA4", "result": 0}, {"measurement": "Ligand-pharmacophore element distance, pharmacophore element CA5", "result": 0}, {"measurement": "Ligand-pharmacophore element distance, pharmacophore element CA6", "result": 0}, {"measurement": "d(CA1,N1)2", "setting": "[1]", "result": 1.38}, {"measurement": "d(CA1,O1)", "setting": "[1]", "result": 4.39}, {"measurement": "d(CA1,O2)", "setting": "[1]", "result": 3.86}, {"measurement": "d(H4,O1)", "setting": "[1]", "result": 3.59}, {"measurement": "d(H4,O2)", "setting": "[1]", "result": 2.73}, {"measurement": "d(O1,O2)", "setting": "[1]", "result": 3.55}, {"measurement": "d(N2,CA2)", "setting": "[2]", "result": 6.02}, {"measurement": "d(O2,H3)", "setting": "[2]", "result": 4.41}, {"measurement": "d(O2,N2)", "setting": "[2]", "result": 2.79}, {"measurement": "a(CA1, O1, O2)", "setting": "Table A6-1 pharmacophore angle", "result": 107.37}, {"measurement": "a(O1, O2, H4)", "setting": "Table A6-1 pharmacophore angle", "result": 113.31}, {"measurement": "a(N1, CA1, O1) b)", "setting": "Table A6-1 pharmacophore angle", "result": 174.46}, {"measurement": "a(O1, O2, H3)", "setting": "Table A6-2 pharmacophore angle", "result": 146.43}, {"measurement": "a(O1, O2, N2)", "setting": "Table A6-2 pharmacophore angle", "result": 138.95}, {"measurement": "a(O2, N2, CA2)", "setting": "Table A6-2 pharmacophore angle", "result": 154.71}, {"measurement": "Pharmacophore torsion angle a(H4, O1, O2, H3)", "setting": "[3]", "result": 50.93}, {"measurement": "Pharmacophore torsion angle a(H4, O1, O2, N2)", "setting": "[3]", "result": 137.94}, {"measurement": "Pharmacophore torsion angle a(N1, CA1, O1, H4)", "setting": "[3]", "result": 39.07}, {"measurement": "Pharmacophore torsion angle a(O1, H4, O2, CA1)", "setting": "[3]", "result": "−94.99"}, {"measurement": "Pharmacophore torsion angle a(O1, O2, N2, CA2)", "setting": "[4]", "result": 128.23}, {"measurement": "Pharmacophore protein distance to MET_658 (first MET_658 column)", "setting": "Table A8-6, 6th residue column, nearest protein atom in cell to the left", "result": 2.61}, {"measurement": "Pharmacophore protein distance to MET_658 (second MET_658 column)", "setting": "Table A8-6, 9th residue column, nearest protein atom in cell to the left", "result": 3.25}, {"measurement": "Pharmacophore protein distance to GLY_528", "setting": "[5]", "result": 3.76}, {"measurement": "Pharmacophore protein distance to PHE_529", "setting": "[5]", "result": 3.15}, {"measurement": "Pharmacophore protein distance to PRO_608", "setting": "[5]", "result": 3.15}, {"measurement": "Pharmacophore protein distance to SER_611", "setting": "[5]", "result": 2.06}, {"measurement": "Pharmacophore protein distance to TRP_655", "setting": "Table A8-6, pharmacophore elements C6, CA3, O3, H1, nearest protein atom in cell to the left", "result": 3.70}]}
{"smiles": "C[C@H](NC(=O)[C@H]1C[C@H](Cc2ccccc2)CN1)C(=O)NCc1ccc(C(=N)N)cc1", "note": "[compound 1306, (2R,4S)-4-Benzyl-N—((S)-1-((4-carbamimidoylbenzyl)amino)-1-oxopropan-2-yl)pyrrolidine-2-carboxamide]", "values": [{"measurement": "H-bond distance to MASP-2 ASP 627 atom OD2", "setting": "Table A1 (H-Bonds), ASP 627 OD2", "result": 2.6}, {"measurement": "H-bond distance to MASP-2 GLY 656 atom N", "setting": "Table A1 (H-Bonds), GLY 656 N", "result": 3.05}, {"measurement": "H-bond distance to MASP-2 GLY 656 atom O", "setting": "Table A1 (H-Bonds), GLY 656 O", "result": 2.69}, {"measurement": "H-bond distance to MASP-2 SER 628 atom O", "setting": "Table A1 (H-Bonds), SER 628 O", "result": 2.24}, {"measurement": "H-bond distance to MASP-2 SER 657 atom O", "setting": "Table A1 (H-Bonds), SER 657 O", "result": 2.87}, {"measurement": "van der Waals contact distance, MASP-2 HIS 483 atom CD2", "setting": "Table A2-1", "result": 3.47}, {"measurement": "van der Waals contact distance, MASP-2 HIS 483 atom NE2", "setting": "Table A2-1", "result": 3.32}, {"measurement": "van der Waals contact distance, MASP-2 PHE 529 atom CZ", "setting": "Table A2-3", "result": 3.63}, {"measurement": "van der Waals contact distance, MASP-2 TYR 607 atom CD1", "setting": "Table A2-4", "result": 3.85}, {"measurement": "van der Waals contact distance, MASP-2 amino acid atom to compound atom", "setting": "Table A2-9 second part, ARG 630, AA atoms N, NE, NH1", "result": 3.76}, {"measurement": "van der Waals contact distance GLY 656 atom C", "setting": "Table A2-13, MASP-2 GLY 656 C", "result": 3.54}, {"measurement": "van der Waals contact distance GLY 656 atom CA", "setting": "Table A2-13, MASP-2 GLY 656 CA", "result": 3.61}]}
{"smiles": "Cc1nc(N)ccc1CNC(=O)[C@H](C)NC(=O)[C@H]1C[C@H](Cc2cccc(Cl)c2)CN1.Cl.Cl", "note": "[1328_2]", "values": [{"measurement": "Ligand-pharmacophore element distance, pharmacophore element C2", "result": 0}, {"measurement": "Ligand-pharmacophore element distance, pharmacophore element C3", "result": 0.15}, {"measurement": "Ligand-pharmacophore element distance, pharmacophore element C4", "result": 1.28}, {"measurement": "Ligand-pharmacophore element distance, pharmacophore element C5", "result": 0}, {"measurement": "Ligand-pharmacophore element distance, pharmacophore element C6", "result": 0}, {"measurement": "Ligand-pharmacophore element distance, pharmacophore element C7", "result": 0}, {"measurement": "Ligand-pharmacophore element distance, pharmacophore element CA1", "result": 0.41}, {"measurement": "Ligand-pharmacophore element distance, pharmacophore element CA2", "result": 0.43}, {"measurement": "Ligand-pharmacophore element distance, pharmacophore element CA3", "result": 0}, {"measurement": "Ligand-pharmacophore element distance, pharmacophore element CA4", "result": 0}, {"measurement": "Ligand-pharmacophore element distance, pharmacophore element CA5", "result": 0}, {"measurement": "Ligand-pharmacophore element distance, pharmacophore element CA6", "result": 0}, {"measurement": "d(C3,CA1)", "setting": "[1]", "result": 2.85}, {"measurement": "d(CA1,N1)2", "setting": "[1]", "result": 1.38}, {"measurement": "d(CA1,O1)", "setting": "[1]", "result": 4.43}, {"measurement": "d(CA1,O2)", "setting": "[1]", "result": 4.01}, {"measurement": "d(H4,O1)", "setting": "[1]", "result": 4.38}, {"measurement": "d(H4,O2)", "setting": "[1]", "result": 3.84}, {"measurement": "d(O1,O2)", "setting": "[1]", "result": 3.08}, {"measurement": "d(N2,C4)", "setting": "[2]", "result": 7.87}, {"measurement": "d(N2,C4)4", "setting": "[2]", "result": 7.87}, {"measurement": "d(N2,CA2)", "setting": "[2]", "result": 5.92}, {"measurement": "d(O2,H3)", "setting": "[2]", "result": 4.54}, {"measurement": "d(O2,N2)", "setting": "[2]", "result": 2.75}, {"measurement": "a(C3, CA1, O1)", "setting": "Table A6-1 pharmacophore angle", "result": 150.10}, {"measurement": "a(CA1, O1, O2)", "setting": "Table A6-1 pharmacophore angle", "result": 103.89}, {"measurement": "a(O1, O2, H4)", "setting": "Table A6-1 pharmacophore angle", "result": 136.71}, {"measurement": "a(N1, CA1, O1) b)", "setting": "Table A6-1 pharmacophore angle", "result": 173.89}, {"measurement": "a(O1, O2, H3)", "setting": "Table A6-2 pharmacophore angle", "result": 149.68}, {"measurement": "a(O1, O2, N2)", "setting": "Table A6-2 pharmacophore angle", "result": 139.05}, {"measurement": "a(O2, N2, C4)", "setting": "Table A6-2 pharmacophore angle", "result": 160.74}, {"measurement": "a(O2, N2, C4) 2", "setting": "Table A6-2 pharmacophore angle", "result": 109.44}, {"measurement": "a(O2, N2, CA2)", "setting": "Table A6-2 pharmacophore angle", "result": 154.85}, {"measurement": "Pharmacophore torsion angle a(C3, CA1, O1, H4)", "setting": "[3]", "result": 21.76}, {"measurement": "Pharmacophore torsion angle a(H4, O1, O2, H3)", "setting": "[3]", "result": 51.26}, {"measurement": "Pharmacophore torsion angle a(H4, O1, O2, N2)", "setting": "[3]", "result": 134.72}, {"measurement": "Pharmacophore torsion angle a(N1, CA1, O1, H4)", "setting": "[3]", "result": "−4.36"}, {"measurement": "Pharmacophore torsion angle a(O1, H4, O2, CA1)", "setting": "[3]", "result": "−83.32"}, {"measurement": "Pharmacophore torsion angle a(O1, O2, N2, CA2)", "setting": "[4]", "result": 132.29}]}
